Results: paper PMC5651866, “Halogenated Chrysins Inhibit Dengue and Zika Virus Infectivity” (Scientific Reports, 2017)

Tests used:
DENV2 = settings: cell-based assay; cited from earlier work
DENV2 NGC = experiment: Primary screening: compounds added to DENV2 infected LLC/MK2 cells, plaque titration of culture supernatants; format: cell-based, Dengue virus; settings: for inhibition of virus production: 10 μM and 25 μM, summary of Table 1; for inhibition at 10 µM / inhibition at 25 µM: Dengue virus, DENV2, LLC-MK2, read-out: DENV2 inhibition (%, means ± SEM)
Method: In this study, we selected 8 flavonoid derivatives (Fig. 1) and tested their effect on DENV2 NGC in a LLC/MK2 cell-based system. Briefly, the compounds at final concentrations of 10 μM and 25 μM in DMSO were added to DENV2 infected LLC/MK2 cells and the effect on viral particle production was measured by plaque titration of the culture supernatants. […] We also tested cytotoxicity of FV13, FV14, and CH1 to verify the viral inhibition in LLC/MK2 cells (Table 2). The viabilities of FV13 treated cells were 81.00 ± 2.69% and 59.40 ± 2.42%, at 10, and 25 µM respectively, whereas the values for FV14 treated cells were 60.24 ± 3.31% and 60.86 ± 3.57%. We also examined Vero, THP-1, HepG2, and HEK-293 cell viabilities in the presence of selected compounds (Table 2).
LLC/MK2 cells were seeded at 5 × 10^4 cells into each well of 24-well plate and incubated overnight at 37 °C under 5% CO2. Cells were infected with DENV2 at the multiplicity of infection (M.O.I.) of 0.1, unless indicated otherwise, for 1 h with gentle rocking every 15 min. Cells were washed with phosphate buffer saline (PBS) and incubated with 1 ml of MEM medium supplemented with 1% FBS as previously described. The compounds were prepared in dimethylsulfoxide (DMSO) at the indicated concentrations before addition to viral infected cells. Supernatants were collected after 5 day incubation and analyzed by plaque titration. In primary screening, DMSO-treated cells served as the untreated control. Compounds that inhibited virus production by ≥90% were selected for further characterization.

[1] = Cytotoxicity study (CellTiter 96 AQueous One) in LLC/MK2 cells; format: cell-based; settings: rhesus monkey; for viability at 48 h, 10 µM / viability at 48 h, 25 µM: read-out: Cells viability (%, means ± SEM) LLC/MK2
Method: (§1) The cytotoxicity of active compounds was tested on LLC-MK2, Vero, THP-1, HEK-293, HepG2 and C6/36 cell lines. Each cell line was seeded at 1 × 10^4 cells per well in 96-well plates and incubated overnight. The compounds were added at the indicated concentrations and the cells were incubated for 48 h, unless indicated otherwise. Cell viability was analyzed using CellTiter 96® AQueous One Solution Cell Proliferation Assay kit (Promega, Wisconsin-Madison, USA) according to manufacturer’s protocol. The plate was read at the A 450 in a VICTORTM × 3 microplate reader (PerkinElmer, Massachusetts, USA). Percent cell viability in compound-treated wells was calculated using reference DMSO-treated cells as a 100% cell viability control. The CC50 values of LLC/MK2 cells were calculated using nonlinear regression analysis. Results were reported as means and standard error of the means (SEM) of CC50 values of three independent experiments in which each drug concentration was tested in triplicate.

[2] = Cytotoxicity study (CellTiter 96 AQueous One) in Vero cells; format: cell-based; settings: African green monkey, 48 h, read-out: Cells viability (%, means ± SEM) Vero
Method: as §1

Vero cells = experiment: as above; format: cell-based; settings: 10 and 25 µM; in words
Method: as §1

[3] = Cytotoxicity study (CellTiter 96 AQueous One) in THP-1 cells; format: cell-based; settings: human, read-out: Cells viability (%, means ± SEM) THP-1
Method: as §1

[4] = Cytotoxicity study (CellTiter 96 AQueous One) in HepG2 cells; format: cell-based; settings: human, read-out: Cells viability (%, means ± SEM) HepG2
Method: as §1

[5] = Cytotoxicity study (CellTiter 96 AQueous One) in HEK-293 cells; format: cell-based; settings: human, read-out: Cells viability (%, means ± SEM) HEK-293
Method: as §1

[6] = set-up: method as in PMID 27098862, PMID 19397994; settings: animals and humans; in words; cited from earlier work
LLC/MK2 cells = experiment: Cytotoxicity study (CellTiter 96 AQueous One) in LLC/MK2 cells; format: cell-based; settings: LLC/MK2 cell viability at 120 h versus 48 h; in words
Method: as §1

DENV1 (16007) = experiment: Antiviral efficacy (EC50) in virus infected LLC/MK2 cells, plaque assay; format: cell-based, Dengue virus; settings: Dengue virus, DENV1, LLC-MK2
Method: (§2) Compound at various concentrations were added to virus infected LLC/MK2 cells and viral titers were accessed by plaque titration of supernatants as previously described.
(§3) LLC/MK2 cells were seeded at 5 × 10^4 cells into each well of 24-well plate and incubated overnight at 37 °C under 5% CO2. Cells were infected with DENV2 at the multiplicity of infection (M.O.I.) of 0.1, unless indicated otherwise, for 1 h with gentle rocking every 15 min. Cells were washed with phosphate buffer saline (PBS) and incubated with 1 ml of MEM medium supplemented with 1% FBS as previously described. The compounds were prepared in dimethylsulfoxide (DMSO) at the indicated concentrations before addition to viral infected cells. Supernatants were collected after 5 day incubation and analyzed by plaque titration[9].
(§4) Compounds were prepared in DMSO at 8–12 different concentrations and added to virus infected cells as previously described. Supernatants were collected and the EC50 values were calculated from nonlinear regression analysis.

DENV2 (NGC) = experiment: as above; format: cell-based, Dengue virus
Method: as §2, §3, §4

DENV3 (16562) = experiment: as above; format: cell-based, Dengue virus
Method: as §2, §3, §4

DENV4 (c0036) = experiment: as above; format: cell-based, Dengue virus
Method: as §2, §3, §4

ZIKV (SV0010/15) = experiment: as above; format: cell-based, Zika virus
Method: as §2, §3, §4

[7] = Cytotoxicity study, summary statements over human-derived cell lines; format: cell-based; settings: HepG2 and HEK-293 cells, THP-1, HepG2, HEK-293, 10 and 25 µM, Table 2
Method: as §1

[8] = system: BHK-21/DENV2 replicon cells; experiment: Replicon inhibition assay, RT-qPCR of replicon RNA; format: cell-based; settings: Dengue virus, DENV2, BHK-21, 72 h, read-out: inhibition of DENV2 replicon replication
Method: Next, we studied FV13 inhibition in a DENV2 replicon replication system to investigate whether translation and replication could be implicated as drug targets. BHK-21/DENV2 replicon cells[28] were treated with 5 and 10 µM FV13 and incubated for 72 h before measuring replication efficiency by quantifying replicon RNA. Ribavirin, a known dengue virus replication inhibitor[29], was used as a positive control.
After supernatant collection, the remaining cells in experimental plates were extracted for viral RNAs using TRIzol reagent (Invitrogen, California, USA) according to the manufacturer’s protocol. The samples were loaded into the Direct-zol™ RNA MiniPrep (Zymo research, California, USA) and quantified by Nanodrop spectrophotometry (Eppendorf, New York, USA). The RT-qPCR was performed with a Step-OnePlus Real-Time PCR System (Applied Biosystems, California, USA.) with 1 × Power SYBRGreen PCR Master Mix, 400 nM each of capsid primers[40] or 250 nM of NS1 primers[41] and 0.1 µg of total RNA. The reactions were then cycled at 48 °C 30 min and 95 °C 10 min, followed by 45 cycles of 95 °C for 20 s (denaturation), 55 °C for 30 s (annealing), 72 °C for 30 s (extension). Each sample was analyzed in triplicated and results were confirmed by two independent experiments.
BHK-21 cells expressing a DENV2 replicon (BHK-21/DENV2) were maintained in minimal essential medium (MEM) supplemented with 10% fetal bovine serum (FBS), and 0.3 mg/ml G418 (Bio Basic Canada, Ontario, Canada). The protocol was adapted from Boonyasuppayakorn et al., 2014 [28]. Briefly, cells (5 × 10^4/well) were seeded into 24-well plates and were incubated for 1 day at 37 °C in a humidified CO2 chamber followed by addition of the compounds in 1% DMSO at final concentrations of 5 µM and 10 µM. DMSO (1%) alone was used as the no-inhibitor control (0% inhibition) and the reference compound was ribavirin (TargetMol, Massachusetts, USA) at a final concentration of 5 µM or 10 µM. Cells were incubated at 37 °C for 72 h and lysed to quantify DENV2 replicons by RT-qPCR. Data were reported as percent inhibition compared with ribavirin, as a reference compound and DMSO, 0% inhibition. Results were confirmed by three independent experiments.

In the case of O=C(O)[C@H]1O[C@@H](Oc2cc3oc(-c4ccccc4)cc(=O)c3c(O)c2O)[C@H](O)[C@@H](O)[C@@H]1O [Baicalin], the EC50 (DENV2) is listed as 30.2 µM.
In the case of COc1ccc(/C=C/C(=O)c2ccccc2O)cc1 [CH1], the “inhibition of virus production” value (DENV2 NGC) is reported as over 99%, the inhibition at 10 µM (DENV2 NGC) is reported as 99.78 ± 0.08% and the inhibition at 25 µM (DENV2 NGC) is reported as 99.75 ± 0.15%. It also gave a viability at 48 h, 10 µM [1] of 61.5 ± 6.43%, a viability at 48 h, 25 µM [1] of 59.1 ± 7.42% and a viability at 48 h, 10 µM [2] of over 100%. For the same compound, the viability at 48 h, 25 µM [2] was 80.4 ± 9.81%, the “sensitivity of Vero cells to the compound” value (Vero cells) was “not” and the viability at 48 h, 10 µM [3] was 93.1 ± 4.99%. It also gave a viability at 48 h, 25 µM [3] of 84.8 ± 2.38%, a viability at 48 h, 10 µM [4] of 71 ± 1.71% and a viability at 48 h, 25 µM [4] of 35.3 ± 1.34%. It also gave a viability at 48 h, 10 µM [5] of 98.3 ± 2.95% and a viability at 48 h, 25 µM [5] of 41.3 ± 0.54%.
Compound O=C(/C=C/c1ccc(O)cc1)c1ccccc1O [CH2] has an inhibition at 10 µM (DENV2 NGC) of 52 ± 8.49% and an inhibition at 25 µM (DENV2 NGC) of 76 ± 4.24%.
COc1cc(O)c2c(c1)OC(c1ccccc1)CC2=O (stereo not shown) [FN2] showed an inhibition at 10 µM (DENV2 NGC) of 62 ± 2.45% and an inhibition at 25 µM (DENV2 NGC) of 85 ± 3%.
For O=c1cc(-c2ccccc2)oc2cc(O)cc(O)c12 [FV2, 5,7-dihydroxyflavone], the inhibition at 10 µM (DENV2 NGC) is given as 43 ± 3%, the inhibition at 25 µM (DENV2 NGC) is given as 92.8 ± 3.06% and the oral bioavailability [6] is given as “poor”.
Work on COc1cc(O)c2c(=O)c(OC)c(-c3ccccc3)oc2c1 [FV4] yielded an inhibition at 10 µM (DENV2 NGC) of 38 ± 6.48% and an inhibition at 25 µM (DENV2 NGC) of 61 ± 3%.
COc1cc(OC)c2c(=O)cc(-c3ccccc3)oc2c1 [FV6] gave an inhibition at 10 µM (DENV2 NGC) of 55 ± 3% and an inhibition at 25 µM (DENV2 NGC) of 76 ± 7.35%.
For O=c1cc(-c2ccccc2)oc2c(I)c(O)c(I)c(O)c12 [FV14, 6,8-diiodo-5,7-dihydroxyflavone], the “inhibition of virus production” value (DENV2 NGC) was over 99%, the inhibition at 10 µM (DENV2 NGC) was 99.48 ± 0.43% and the inhibition at 25 µM (DENV2 NGC) was 99.63 ± 0.03%. For the same compound, the viability at 48 h, 10 µM ([1]; LLC/MK2 cells) was 60.2 ± 3.31%, the viability at 48 h, 25 µM ([1]; LLC/MK2 cells) was 60.9 ± 3.57% and the CC50 at 48 h ([1]; LLC/MK2 cells, 48 h incubation, read-out: CC50 (cytotoxic concentration)) was 42.5 ± 2.53 µM. The “effect of long term incubation on cytotoxicity” value (LLC/MK2 cells) was “significantly greater cytotoxicity at 120 h”, the viability at 48 h, 10 µM ([2]; Vero cells) was 45.4 ± 1.17% and the viability at 48 h, 25 µM ([2]; Vero cells) was 34.1 ± 2.18%. The “sensitivity of Vero cells to the compound” value (Vero cells) was “very sensitive”, the viability at 48 h, 10 µM ([3]; THP-1 cells) was 86.1 ± 2.76% and the viability at 48 h, 25 µM ([3]; THP-1 cells) was 93.9 ± 7%. For the same compound, the viability at 48 h, 10 µM ([4]; HepG2 cells) was 85.6 ± 3.04%, the viability at 48 h, 25 µM ([4]; HepG2 cells) was 87.01 ± 0.52% and the viability at 48 h, 10 µM ([5]; HEK-293 cells) was 80.5 ± 3.18%. For the same compound, the viability at 48 h, 25 µM ([5]; HEK-293 cells) was 48.4 ± 5.76%, the EC50 (DENV1 (16007)) was 2.3 ± 0.92 µM and the “S.I. Selectivity index (CC50/EC50)” value (DENV2 (NGC); DENV2 (NGC), CC50 in LLC/MK2) was 20.37. For the same compound, the EC50 (DENV2 (NGC); Dengue virus, DENV2, LLC-MK2) was 2.19 ± 0.31 µM, the “S.I. Selectivity index (CC50/EC50)” value (DENV3 (16562); DENV3 (16562), CC50 in LLC/MK2) was 43.64 and the EC50 (DENV3 (16562); Dengue virus, DENV3, LLC-MK2) was 1.02 ± 0.31 µM. For the same compound, the “S.I. Selectivity index (CC50/EC50)” value (DENV4 (c0036); DENV4 (c0036), CC50 in LLC/MK2) was 34.50, the EC50 (DENV4 (c0036); Dengue virus, DENV4, LLC-MK2) was 1.29 ± 0.6 µM and the “S.I. Selectivity index (CC50/EC50)” value (ZIKV (SV0010/15); CC50 in LLC/MK2) was 32.14. For the same compound, the EC50 (ZIKV (SV0010/15); Zika virus, LLC/MK2, plaque assay in 24-well plates) was 1.39 ± 0.11 µM and the viability at 48 h [7] was over 80%.
For O=C1C[C@@H](c2ccc(O)cc2)Oc2cc(O)cc(O)c21 [Naringenin], the EC50 (DENV2) is given as 18 µM.
In the case of O=c1cc(-c2ccccc2)oc2cc(O)c(O)c(O)c12 [baicalein], the EC50 (DENV2) is listed as 23.9 µM.
In the case of O=c1c(O)c(-c2ccc(O)c(O)c2)oc2cc(O)ccc12 [fisetin], the EC50 (DENV2) is listed as 192 µM.
In the case of O=c1c(O)c(-c2ccc(O)c(O)c2)oc2cc(O)cc(O)c12 [quercetin], the EC50 (DENV2) is listed as 118 µM.
In the case of NC(=O)c1ncn([C@@H]2O[C@H](CO)[C@@H](O)[C@H]2O)n1 [ribavirin, reference compound], the inhibition at 5 µM [8] is reported as 87.4 ± 10.7% and the inhibition at 10 µM [8] is reported as 89.9 ± 4.83%.
